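Briefly, cells in 96-well plates were exposed to five compound concentrations for 48 h, and endpoints were estimated by linear interpolation. TGI is the concentration that stops growth completely.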
Columns and labels:
Test in all cases: NCI-60 cell line screen, 48 h
[1] = tested on: CAKI-1 renal
[2] = tested on: ACHN renal
[3] = tested on: MALME-3M melanoma
[4] = tested on: HOP-92 NSCLC
[5] = tested on: EKVX NSCLC
[6] = tested on: A549 NSCLC
[7] = tested on: SF-295 CNS
[8] = tested on: 786-0 renal
[9] = tested on: CCRF-CEM leukemia
[10] = tested on: HCC-2998 colon
[11] = tested on: KM12 colon
[12] = tested on: HL-60(TB) leukemia
[13] = tested on: NCI-H226 lung
[14] = tested on: OVCAR-3 ovarian
[15] = tested on: MDA-N
[16] = tested on: UACC-257 melanoma
[17] = tested on: PC-3 prostate
[18] = tested on: SR leukemia
[19] = tested on: SK-MEL-28 melanoma
[20] = tested on: NCI-H23 lung
[21] = tested on: UACC-62 melanoma
[22] = tested on: OVCAR-4 ovarian
[23] = tested on: MDA-MB-231 breast
[24] = tested on: HCT-116 colon
[25] = tested on: SF-539 CNS
[26] = tested on: DU-145 prostate
[27] = tested on: RXF 393 renal
[28] = tested on: NCI-H460 lung
[29] = tested on: SK-MEL-2 melanoma
[30] = tested on: RPMI-8226 leukemia
[31] = tested on: MCF7 breast
[32] = tested on: NCI-H522 lung
[33] = tested on: SNB-19 CNS
[34] = tested on: OVCAR-5 ovarian
[35] = tested on: U251 CNS
[36] = tested on: UO-31 renal
[37] = tested on: HS 578T breast
[38] = tested on: BT-549 breast
[39] = tested on: SF-268 CNS
[40] = tested on: HOP-62 NSCLC
[41] = tested on: HT29 colon
[42] = tested on: MDA-MB-435
[43] = tested on: OVCAR-8 ovarian
[44] = tested on: M14 melanoma
[45] = tested on: T-47D breast
[46] = tested on: NCI/ADR-RES ovarian
[47] = tested on: SK-OV-3 ovarian
[48] = tested on: LOX IMVI melanoma
[49] = tested on: MOLT-4 leukemia
[50] = tested on: IGROV1 ovarian
[51] = tested on: TK-10 renal
[52] = tested on: A498 renal
[53] = tested on: SK-MEL-5 melanoma
[54] = tested on: K-562 leukemia
[55] = tested on: SNB-75 CNS
[56] = tested on: SW-620 colon
[57] = tested on: HCT-15 colon
[58] = tested on: SN12C renal
[59] = tested on: COLO 205 colon
[60] = tested on: SNB-78 CNS
[61] = tested on: M19-MEL melanoma
[62] = tested on: DLD-1 colon
[63] = tested on: LXFL 529 NSCLC
[64] = tested on: HOP-18 NSCLC
[65] = tested on: KM20L2 colon

In the case of COc1ccc(NC(=O)CC(=O)NNC(Sc2ccccc2)c2cc(N=Nc3ccc(Br)cc3)ccc2O)cc1 (stereo not given), the TGI [1] is reported as over 10 µM, the TGI [2] is reported as over 10 µM and the TGI [3] is reported as over 10 µM. It also gave a TGI [4] of over 10 µM, a TGI [5] of over 10 µM and a TGI [6] of over 10 µM. It also gave a TGI [7] of over 10 µM, a TGI [8] of over 10 µM and a TGI [9] of over 10 µM. It also gave a TGI [10] of over 10 µM, a TGI [11] of over 10 µM and a TGI [12] of over 10 µM. For the same molecule, the TGI [13] was over 10 µM, the TGI [14] was over 10 µM and the TGI [15] was over 10 µM. It also gave a TGI [16] of over 10 µM, a TGI [17] of over 10 µM and a TGI [18] of over 10 µM. It also gave a TGI [19] of over 10 µM, a TGI [20] of over 10 µM and a TGI [21] of over 10 µM. The TGI [22] was over 10 µM, the TGI [23] was over 10 µM and the TGI [24] was over 10 µM. For the same molecule, the TGI [25] was over 10 µM, the TGI [26] was over 10 µM and the TGI [27] was over 10 µM. The TGI [28] was over 10 µM, the TGI [29] was over 10 µM and the TGI [30] was over 10 µM. For the same molecule, the TGI [31] was over 10 µM, the TGI [32] was over 10 µM and the TGI [33] was over 10 µM. It also gave a TGI [34] of over 10 µM, a TGI [35] of over 10 µM and a TGI [36] of over 10 µM. The TGI [37] was over 10 µM, the TGI [38] was over 10 µM and the TGI [39] was over 10 µM. For the same molecule, the TGI [40] was over 10 µM, the TGI [41] was over 10 µM and the TGI [42] was over 10 µM. The TGI [43] was over 10 µM, the TGI [44] was over 10 µM and the TGI [45] was over 10 µM. For the same molecule, the TGI [46] was over 10 µM, the TGI [47] was over 10 µM and the TGI [48] was over 10 µM. The TGI [49] was over 10 µM, the TGI [50] was over 10 µM and the TGI [51] was over 10 µM. It also gave a TGI [52] of over 10 µM, a TGI [53] of over 10 µM and a TGI [54] of over 10 µM. The TGI [55] was over 10 µM, the TGI [56] was over 10 µM and the TGI [57] was over 10 µM. It also gave a TGI [58] of over 10 µM and a TGI [59] of over 10 µM.
Molecule CC(NC1CCCC[C@H]1O)c1ccccc1 (stereo not given in full) has a TGI [1] of over 100 µM, a TGI [60] of over 100 µM and a TGI [2] of over 100 µM. For the same molecule, the TGI [3] was over 100 µM, the TGI [4] was over 100 µM and the TGI [6] was over 100 µM. The TGI [8] was over 100 µM, the TGI [10] was over 100 µM and the TGI [13] was over 100 µM. It also gave a TGI [16] of over 100 µM, a TGI [61] of over 100 µM and a TGI [19] of over 100 µM. The TGI [21] was over 100 µM, the TGI [22] was over 100 µM and the TGI [24] was over 100 µM. The TGI [62] was over 100 µM, the TGI [28] was over 100 µM and the TGI [29] was over 100 µM. For the same molecule, the TGI [30] was over 100 µM, the TGI [63] was over 100 µM and the TGI [33] was over 100 µM. The TGI [34] was over 100 µM, the TGI [35] was over 100 µM and the TGI [64] was over 100 µM. For the same molecule, the TGI [36] was over 100 µM, the TGI [40] was over 100 µM and the TGI [41] was over 100 µM. The TGI [65] was over 100 µM, the TGI [44] was over 100 µM and the TGI [47] was over 100 µM. The TGI [49] was over 100 µM, the TGI [50] was over 100 µM and the TGI [53] was over 100 µM. It also gave a TGI [55] of over 100 µM, a TGI [56] of over 100 µM and a TGI [59] of over 100 µM.

Reference: PubChem BioAssay (NCI)
